US20260115180A1, “TREATMENT OF HYPOTHALAMIC OBESITY” (Saniona A/S, priority 2020, published 2026)

Tests used:
[1] = in vivo; cited from earlier work
[2] = rat model of diet-induced obesity; cited from earlier work
[3] = Phase 2 double-blind, randomized, placebo-controlled trial of Tesomet in hypothalamic obesity, Part 1 (24 weeks); type: in vivo, human; details: after 24 weeks of treatment (FIG. 3a)
Description: The overall safety and tolerability of co-administration of tesofensine and metoprolol (Tesomet) in subjects with hypothalamic injury-induced obesity (HIO) was studied in a phase 2, double-blind, randomized, placebo-controlled, single-center safety and efficacy study followed by with an open-label extension, in total 48 weeks: • Part 1:24 Weeks double blinded treatment followed by • Part 2:24 weeks open lable extension.
The studied population were subjects suffering from obesity developed in relation to damage to the hypothalamus (HO), whether it is from an injuring trauma, bleeding, infaction, tumor, surgery or irradiation. […]
This randomized, double-blind, placebo-controlled Phase 2 trial evaluated Tesomet (tesofensine 0.5 mg+metoprolol 50 mg) administered daily in patients with HO, conducted at Rigshospitalet in Copenhagen, Denmark.
The primary endpoint of the study was overall safety and tolerability measured by all safety data collected during the study including recorded adverse events, laboratory data, blood pressure, and heart rate. […]
Continuous efficacy secondary endpoints were compared between treatment arms by means using Analysis of Co-variance (ANCOVA) including treatment as fixed factor and baseline value as covariate. Estimates and 95% confidence intervals of treatment differences were calculated

[4] = Open-label extension of the Phase 2 study TM005 (additional 24 weeks, 48 weeks in total); type: in vivo, human
Procedure: All subjects: co-administration of 0.5 mg tesofensine/50 mg metoprolol ER daily for 24 weeks. One tablet for each product.
TM005 was a 24-week phase 2, double-blind, randomized, placebo-controlled, single-centre, safety and efficacy study followed by a 24-week open-label extension treatment period designed to evaluate overall safety and tolerability of Tesomet (co-administration of 0.5 mg tesofensine and 50 mg metoprolol) in patients with hypothalamic obesity (HO).
The primary endpoint of the study was overall safety and tolerability measured by all safety data collected during the study including recorded adverse events, laboratory data, blood pressure, and heart rate. The secondary efficacy endpoints included bodyweight, waist circumference, glycemic control and other measures. In the double-blind (DB) period of the study, patients received either Tesomet or matching placebo (2:1 randomization) for 24 weeks.
A total of 21 patients (13 Tesomet, 8 placebo) were randomized into the double blind (DB) period. All patients who completed the DB period of the study were provided the opportunity to receive Tesomet in an open-label extension (OLE) period of the study for an additional 24 weeks. All 18 patients who completed the DB period chose to participate in the OLE period and all of these patients completed the OLE period. […]

[5] = cited from earlier work

## COc1ccccc1OCCNCC(O)COc1cccc2[nH]c3ccccc3c12 (racemic) [carvedilol, (±)-[3-(9H-carbazol-4-yloxy)-2-hydroxypropyl][2-(2-methoxyphenoxy)ethyl]amine]
[1]
  Half-life of beta blockers: 7 to 10 h

## CCOC[C@@H]1[C@@H](c2ccc(Cl)c(Cl)c2)C[C@@H]2CC[C@H]1N2C [Tesofensine, (1R,2R,3S,5S)-3-(3,4-dichlorophenyl)-2-(ethoxymethyl)-8-methyl-8-azabicyclo[3.2.1]octane]
[2]
  Body weight in DIO rats: robust and sustained weight loss
[3]
  Share of patients with at least 5% weight loss: approximately ⅔
[4]; FIG. 3b
  Share of patients with at least 10% weight loss: 33-41%
[4]; baseline to Week 48, 24 weeks double-blind + 24 weeks open-label (FIG. 5)
  Body weight after 48 weeks of Tesomet: maintained
[5]; human subjects
  Nocturnal energy expenditure: increase nocturnal energy expenditure
[5]; long-term treatment
  Weight loss in obese patients, corrected for placebo and diet effects: about 10%

## COCCc1ccc(OCC(O)CNC(C)C)cc1 (centres unmarked) [metoprolol, 1-(Isopropylamino)-3-[4-(2-methoxyethyl)-phenoxy]-propan-2-ol]
[1]
  Half-life of beta blockers: 3 to 4 h
